Measured values reported in patent US20240115704A1, “TREATMENT OF CANCER WITH NK CELLS AND A CD38-TARGETED ANTIBODY” (Artiva Biotherapeutics, Inc., priority 2021, published 2024).

Experiments:
K562 = test: Cytotoxicity of steroid treated AB-101 cells against K562; assay type: cell-based; conditions: 5:1 E:T
Daudi = test: Cytotoxicity of steroid treated AB-101 cells against Daudi; assay type: cell-based; conditions: 48 hours; particularly when combined with 500 IU/mL of IL-2; 5:1 E:T
NCI-H929 = test: Cytotoxicity of steroid treated AB-101 cells against NCI-H929; assay type: cell-based; conditions: 48 hours; particularly when combined with 500 IU/mL of IL-2; 5:1 E:T
[1] = system: K562, Daudi, RPMI-8226, and NCI-H929; test: Impact of steroids on AB-101+daratumumab ADCC; conditions: 48 hours steroid treatment; 5:1 E:T; with daratumumab
[2] = system: Burkitt's lymphoma cell line Daudi; test: Complement fixation assay (CDC), assay control tumor line; assay type: cell-based; conditions: human complement serum; lowest concentration tested
Description: Burkitt's lymphoma cell line Daudi was included as an assay control.

[3] = system: CD38+ multiple myeloma cell line MM.1S; test: Daratumumab titration, ADCC by AB-101 cells against MM.1S; assay type: cell-based; conditions: AB-101 at 5:1 E:T, 4 hours
Protocol: (§1) After 4 hours on co-culture, the samples were analyzed by flow cytometry.

CD38− cell line K562 = test: Daratumumab titration, cytotoxicity of AB-101 cells against K562; assay type: cell-based; conditions: AB-101 at 5:1 E:T, 4 hours
Protocol: as §1

Row | Compound | basal cytotoxicity of steroid treated AB-101 cells (K562; 0.1, 1, 10 μM for 48 hours, all concentrations tested, with the exception of one cell lot) | cytotoxicity of steroid treated AB-101 cells with 500 IU/ml of IL-2 (K562; 500 IU/ml IL-2 during steroid treatment) | basal cytotoxicity of steroid treated AB-101 cells (Daudi) | basal cytotoxicity of steroid treated AB-101 cells (NCI-H929) | ADCC potential of steroid treated AB-101 cells [1] | concentration of daratumumab at which lysis reached saturation [2] [µg/mL] | ADCC compared to IgG1 control antibodies [3] | cytotoxicity of AB-101 cells, daratumumab vs IgG control (CD38− cell line K562)
1 | C[C@@H]1C[C@H]2[C@@H]3CCC4=CC(=O)C=C[C@]4(C)[C@@]3(F)[C@@H](O)C[C@]2(C)[C@@]1(O)C(=O)CO [Dexamethasone, (8S,9R,10S,11S,13S,14S,16R,17R)-9-fluoro-11,17-dihydroxy-17-(2-hydroxyacetyl)-10,13,16-trimethyl-6,7,8,11,12,14,15,16-octahydrocyclopenta[a]phenanthren-3-one] | reduced | restored cytotoxicity | enhanced | enhanced | did not abolish | – | – | –
2 | daratumumab: mAb that targets CD38, approved for multiple myeloma | – | – | – | – | – | ≤ 0.41 | elicited ADCC | no change in cytotoxicity
